{"source": "patent US10889620B2", "about": "“Solid state forms of linaclotide” (NOVETIDE LTD., priority 2015, dated 2021)", "key": {"[1]": {"settings": "storage for 3 months; 40° C. and 75% relative humidity; from U.S. Pat. No. 8,222,201, Example 3, Table 13; cited from earlier work"}, "[2]": {"experiment": "Stability test of solid Linaclotide forms, storage in sealed HDPE bottles at 40° C. and 75% relative humidity, hydrolysis product content", "format": "physicochemical", "settings": "sealed 45 cc. HDPE bottles", "experimental": "Linaclotide Form III according to the present invention was subjected to a stability test in accordance with U.S. Pat. No. 8,222,201, Example 3 (storage in sealed 45 cc. high density polyethylene bottles at 40° C. and 75% relative humidity)."}, "[3]": {"experiment": "Stability of Linaclotide solutions with and without ethanol, % multimers by HPLC-SEC", "format": "physicochemical", "settings": "RT, sealed vials", "experimental": "Solutions of Linaclotide in: (A): a 1:1 mixture of 0.2% AcOH: ACN or (B): a 1:1:9.5 mixture of 0.2% AcOH:ACN:EtOH, were stored for 12 days at room temperature (RT) in sealed vials. The solutions were analysed by (HPLC-size exclusion chromatography) (HPLC-SEC), for % multimers (the major degradants present) content (see table below):\nThe results are graphically represented in FIG. 6."}}, "note": "Bridge positions count the residues as written; N and C are the ends. Peptide text beside a SMILES is read from it."}
{"smiles": "C[C@@H]1NC(=O)[C@@H]2CCCN2C(=O)[C@H](CC(N)=O)NC(=O)[C@@H]2CSSC[C@H](N)C(=O)N[C@H]3CSSC[C@H](NC1=O)C(=O)N[C@@H]([C@@H](C)O)C(=O)NCC(=O)N[C@H](C(=O)N[C@@H](Cc1ccc(O)cc1)C(=O)O)CSSC[C@H](NC(=O)[C@H](Cc1ccc(O)cc1)NC(=O)[C@H](CCC(=O)O)NC3=O)C(=O)N2", "note": "[Form alpha, Linaclotide] (H-CCEYCCNPACTGCY-OH; disulfide 1-6, 2-10, 5-13)", "values": [{"measurement": "hydrolysis product (L-Asp Linaclotide impurity) content", "setting": "[1]", "value": 5.7, "unit": "wt %"}]}
{"smiles": "C[C@@H]1NC(=O)[C@@H]2CCCN2C(=O)[C@H](CC(N)=O)NC(=O)[C@@H]2CSSC[C@H](N)C(=O)N[C@H]3CSSC[C@H](NC1=O)C(=O)N[C@@H]([C@@H](C)O)C(=O)NCC(=O)N[C@H](C(=O)N[C@@H](Cc1ccc(O)cc1)C(=O)O)CSSC[C@H](NC(=O)[C@H](Cc1ccc(O)cc1)NC(=O)[C@H](CCC(=O)O)NC3=O)C(=O)N2", "note": "[Linaclotide Form III, Linaclotide] (H-CCEYCCNPACTGCY-OH; disulfide 1-6, 2-10, 5-13)", "values": [{"measurement": "Linaclotide hydrolysis product (L-Asp Linaclotide impurity) content", "setting": "[2]; after 4 weeks", "value": 0.22, "unit": "%"}, {"measurement": "Linaclotide hydrolysis product (L-Asp Linaclotide impurity) content", "setting": "[2]; extrapolated to 3 months", "value": 0.45, "unit": "wt %"}]}
{"smiles": "C[C@@H]1NC(=O)[C@@H]2CCCN2C(=O)[C@H](CC(N)=O)NC(=O)[C@@H]2CSSC[C@H](N)C(=O)N[C@H]3CSSC[C@H](NC1=O)C(=O)N[C@@H]([C@@H](C)O)C(=O)NCC(=O)N[C@H](C(=O)N[C@@H](Cc1ccc(O)cc1)C(=O)O)CSSC[C@H](NC(=O)[C@H](Cc1ccc(O)cc1)NC(=O)[C@H](CCC(=O)O)NC3=O)C(=O)N2", "note": "[Linaclotide] (H-CCEYCCNPACTGCY-OH; disulfide 1-6, 2-10, 5-13)", "values": [{"measurement": "% Multimers according to HPLC-SEC method", "setting": "[3]; solution (A) without EtOH: 1:1 0.2% AcOH:ACN, Day 0", "value": 1.72, "unit": "%"}, {"measurement": "% Multimers according to HPLC-SEC method", "setting": "[3]; solution (A) without EtOH: 1:1 0.2% AcOH:ACN, Day 1", "value": 1.87, "unit": "%"}, {"measurement": "% Multimers according to HPLC-SEC method", "setting": "[3]; solution (A) without EtOH: 1:1 0.2% AcOH:ACN, Day 2", "value": 1.70, "unit": "%"}, {"measurement": "% Multimers according to HPLC-SEC method", "setting": "[3]; solution (A) without EtOH: 1:1 0.2% AcOH:ACN, Day 5", "value": 3.05, "unit": "%"}, {"measurement": "% Multimers according to HPLC-SEC method", "setting": "[3]; solution (A) without EtOH: 1:1 0.2% AcOH:ACN, Day 6", "value": 3.75, "unit": "%"}, {"measurement": "% Multimers according to HPLC-SEC method", "setting": "[3]; solution (A) without EtOH: 1:1 0.2% AcOH:ACN, Day 7", "value": 3.83, "unit": "%"}, {"measurement": "% Multimers according to HPLC-SEC method", "setting": "[3]; solution (A) without EtOH: 1:1 0.2% AcOH:ACN, Day 8", "value": 4.61, "unit": "%"}, {"measurement": "% Multimers according to HPLC-SEC method", "setting": "[3]; solution (A) without EtOH: 1:1 0.2% AcOH:ACN, Day 11", "value": 6.47, "unit": "%"}, {"measurement": "% Multimers according to HPLC-SEC method", "setting": "[3]; solution (A) without EtOH: 1:1 0.2% AcOH:ACN, Day 12", "value": 7.18, "unit": "%"}, {"measurement": "% Multimers according to HPLC-SEC method", "setting": "[3]; solution (B) with EtOH: 1:1:9.5 0.2% AcOH:ACN:EtOH, Day 0", "value": 1.54, "unit": "%"}, {"measurement": "% Multimers according to HPLC-SEC method", "setting": "[3]; solution (B) with EtOH: 1:1:9.5 0.2% AcOH:ACN:EtOH, Day 1", "value": 1.66, "unit": "%"}, {"measurement": "% Multimers according to HPLC-SEC method", "setting": "[3]; solution (B) with EtOH: 1:1:9.5 0.2% AcOH:ACN:EtOH, Day 2", "value": 2.17, "unit": "%"}, {"measurement": "% Multimers according to HPLC-SEC method", "setting": "[3]; solution (B) with EtOH: 1:1:9.5 0.2% AcOH:ACN:EtOH, Day 5", "value": 2.34, "unit": "%"}, {"measurement": "% Multimers according to HPLC-SEC method", "setting": "[3]; solution (B) with EtOH: 1:1:9.5 0.2% AcOH:ACN:EtOH, Day 6", "value": 3.22, "unit": "%"}, {"measurement": "% Multimers according to HPLC-SEC method", "setting": "[3]; solution (B) with EtOH: 1:1:9.5 0.2% AcOH:ACN:EtOH, Day 7", "value": 3.54, "unit": "%"}, {"measurement": "% Multimers according to HPLC-SEC method", "setting": "[3]; solution (B) with EtOH: 1:1:9.5 0.2% AcOH:ACN:EtOH, Day 8", "value": 3.64, "unit": "%"}, {"measurement": "% Multimers according to HPLC-SEC method", "setting": "[3]; solution (B) with EtOH: 1:1:9.5 0.2% AcOH:ACN:EtOH, Day 11", "value": 3.62, "unit": "%"}, {"measurement": "% Multimers according to HPLC-SEC method", "setting": "[3]; solution (B) with EtOH: 1:1:9.5 0.2% AcOH:ACN:EtOH, Day 12", "value": 4.88, "unit": "%"}]}
